According to US5284829A, “Synthetic tetrapeptides for the prevention of schistosome parasite infection” (priority 1991, dated 1994):
Where a SMILES comes first, the peptide text is derived from it. [ ]: non-standard residue; d: D form. The star is where a group is joined. pNA = O=[N+]([O-])c1ccc(N*)cc1; AMC = Cc1cc(=O)oc2cc(N*)ccc12; MeOSuc = COC(=O)CCC(=O)*; Nle = CCCC[C@H](N)C(=O)O; SBn = c1ccc(CS*)cc1; CH2Cl = ClC*

target: T1, cercarial protease (Schistosoma mansoni, UniProt P12546); assay: not given; format: biochemical; settings: substrate hydrolysis, 100 mM glycine/NaOH, 2 mM CaCl2, pH 9.0; Lineweaver-Burk
T1 construct: Serine protease was isolated from the acetabular glands of cercariae as described previously in McKerrow et al., 1985; from tissue; host or cells: acetabular glands of cercariae
T1 sequence (P12546 28-264): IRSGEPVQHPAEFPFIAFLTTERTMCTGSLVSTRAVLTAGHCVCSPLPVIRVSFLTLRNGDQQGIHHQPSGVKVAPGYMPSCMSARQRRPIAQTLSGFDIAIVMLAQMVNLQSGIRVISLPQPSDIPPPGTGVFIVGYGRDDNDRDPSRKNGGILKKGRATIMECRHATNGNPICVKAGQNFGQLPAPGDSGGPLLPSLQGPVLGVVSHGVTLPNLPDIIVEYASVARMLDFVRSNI
Method: Serine protease was isolated from the acetabular glands of cercariae as described previously in McKerrow et al., 1985. J. Biol. Chem. 260, 3703-3707. All tetrapeptide thioester (Sbzl) substrates with the exception of MeO-Suc-Ala-Ala-Pro-Lys-Sbzl (a gift from Dr. James C. Powers, School of Chemistry, Georgia Institute of Technology, Atlanta, Ga.) were purchased from Enzyme System Products (Dublin, Calif.). Stock solutions (25 mM) of all substrates were prepared in dimethyl sulfoxide (DMSO). Rates of hydrolysis of substrates were measured by adding 1-10 μl of substrate and 25 μl of 1 mM 4,4'-dithiodipyridine in DMSO to buffer (100 mM glycine/NaOH, 2 mM CaCl2, pH 9.0) to give a total volume of 1.0 ml. A 10 μl enzyme sample was added to start the reaction. The increase in the absorbance at 325 nm was followed on a Gilford spectrophotometer. An ε value of 19,800 was used for the thiopyridine production.
Assays of paranitroanilide (pNA) and 7-amino-4-methyl coumarin (AMC) derivatized peptides were carried out as described in McKerrow et al., 1985. J. Biol. Chem. 260, 3703-3707. MeO-Suc-Ala-Ala-Pro-Phe-pNA was from Vega Biochemicals, Tucson, Az. MeO-Suc-Ala-Ala-Pro-Leu-pNA was a gift of Dr. David Agard, Department of Biochemistry, UCSF. All other pNA substrates were a gift of Dr. Corey Largman, Veterans Administration Hospital, Martinez, Calif. All AMC substrates were from Enzyme Systems Products, Dublin, Calif.
For each peptide substrate, the substrate concentration range was varied over ten-fold. The kinetic constants were determined from the initial rates of product formation using a least squares analysis according to method of Lineweaver-Burk (Lineweaver, H. & Burk, D. 1934. J. Am. Chem. Soc. 56, 658).

Structure (SMILES) | Km [µM]
COC(=O)CCC(=O)N[C@@H](C)C(=O)N[C@@H](C)C(=O)N1CCC[C@H]1C(=O)N[C@@H](Cc1ccccc1)C(=O)SCc1ccccc1 [MeO-Suc-Ala-Ala-Pro-Phe-Sbzl] (MeOSuc-AAPF-SBn) | 96
COC(=O)CCC(=O)N[C@@H](C)C(=O)N[C@@H](C)C(=O)N1CCC[C@H]1C(=O)N[C@@H](Cc1ccccc1)C(=O)Nc1ccc([N+](=O)[O-])cc1 [MeO-Suc-Ala-Ala-Pro-Phe-pNA] (MeOSuc-AAPF-pNA) | 119
COC(=O)CCC(=O)N[C@@H](C)C(=O)N[C@@H](C)C(=O)N1CCC[C@H]1C(=O)N[C@@H](CC(C)C)C(=O)Nc1ccc([N+](=O)[O-])cc1 [MeO-Suc-Ala-Ala-Pro-Leu-pNA] (MeOSuc-AAPL-pNA) | 118
CCCC[C@H](NC(=O)[C@@H]1CCCN1C(=O)[C@H](C)NC(=O)[C@H](C)NC(=O)CCC(=O)OC)C(=O)Nc1ccc([N+](=O)[O-])cc1 [MeO-Suc-Ala-Ala-Pro-Nle-pNA] (MeOSuc-AAP[Nle]-pNA) | 300
COC(=O)CCC(=O)N[C@@H](C)C(=O)N[C@@H](C)C(=O)N1CCC[C@H]1C(=O)N[C@@H](CCSC)C(=O)Nc1ccc([N+](=O)[O-])cc1 [MeO-Suc-Ala-Ala-Pro-Met-pNA] (MeOSuc-AAPM-pNA) | 300
COC(=O)CCC(=O)N[C@@H](Cc1ccccc1)C(=O)N[C@@H](C)C(=O)N1CCC[C@H]1C(=O)N[C@@H](Cc1ccccc1)C(=O)SCc1ccccc1 [MeO-Suc-Phe-Ala-Pro-Phe-Sbzl] (MeOSuc-FAPF-SBn) | 244
COC(=O)CCC(=O)N[C@@H](C)C(=O)N[C@@H](C)C(=O)N1CCC[C@H]1C(=O)N[C@@H](CC(C)C)C(=O)SCc1ccccc1 [MeO-Suc-Ala-Ala-Pro-Leu-Sbzl] (MeOSuc-AAPL-SBn) | 464

same assay, conditions: very low activity = absorbance change less than 0.001 O.D. in 40 min with 1.5 mM substrate

Structure (SMILES) | substrate hydrolysis activity (in words)
COC(=O)CCC(=O)N[C@@H](Cc1c[nH]c2ccccc12)C(=O)N[C@@H](C)C(=O)N1CCC[C@H]1C(=O)N[C@@H](Cc1ccccc1)C(=O)SCc1ccccc1 [MeO-Suc-Trp-Ala-Pro-Phe-Sbzl] (MeOSuc-WAPF-SBn) | no activity
COC(=O)CCC(=O)N[C@@H](C)C(=O)N[C@@H](C)C(=O)N1CCC[C@H]1C(=O)N[C@@H](C)C(=O)SCc1ccccc1 [MeO-Suc-Ala-Ala-Pro-Ala-Sbzl] (MeOSuc-AAPA-SBn) | no activity
COC(=O)CCC(=O)N[C@@H](C)C(=O)N[C@@H](C)C(=O)N1CCC[C@H]1C(=O)N[C@H](C(=O)Nc1ccc2c(C)cc(=O)oc2c1)C(C)C [MeO-Suc-Ala-Ala-Pro-Val-AMC] (MeOSuc-AAPV-{AMC}) | no activity
COC(=O)CCC(=O)N[C@@H](C)C(=O)N[C@@H](C)C(=O)N1CCC[C@H]1C(=O)N[C@@H](C)C(=O)Nc1ccc2c(C)cc(=O)oc2c1 [MeO-Suc-Ala-Ala-Pro-Ala-AMC] (MeOSuc-AAPA-{AMC}) | no activity
COC(=O)CCC(=O)N[C@@H](C)C(=O)N[C@@H](C)C(=O)N1CCC[C@H]1C(=O)N[C@@H](CCCCN)C(=O)SCc1ccccc1 [MeO-Suc-Ala-Ala-Pro-Lys-Sbzl] (MeOSuc-AAPK-SBn) | no activity

tested on: cercariae of Schistosoma mansoni (Puerto Rican strain); assay: not given; format: cell-based; settings: 50 micromolar
Method: A modification of the assay developed by Clegg and Smithers (Clegg & Smithers, 1972. Int. J. Parasitol. 2, 79-98.) was used. Two Plexiglass chambers were manufactured which could be screwed together to hold a 25×25 mm section of skin at the interface of the two chambers. Human skin was obtained from autopsy (6-12 hours following death) or from amputation specimens received at the Department of Surgical Pathology, UCSF. The chamber below the skin was filled with tissue culture medium (DME H16) prewarmed to 37° C. After the skin was clamped, the upper chamber was filled with water containing 9000 cercariae of Schistosoma mansoni (Puerto Rican strain). Cercariae will follow a thermal gradient, and they are stimulated by the lipid on the surface of skin to invade (Stirewalt, 1974. Adv. Parasitol. 12, 115-180). After one hour exposure to cercariae the skin was removed, fixed in 10% phosphate buffered formalin for 24 h, and sectioned at 2 mm intervals. Following dehydration and routine paraffin embedding, 5μ sections were cut by microtome and stained with hemotoxylin and eosin. The number of cercariae which had invaded epidermis or dermis was counted in each section. Percent inhibition of invasion was calculated as [formula] All assays were done in triplicate and standard deviation of the mean calculated. […]

Structure (SMILES) | cercariae inhibited from invading skin
COC(=O)CCC(=O)N[C@@H](C)C(=O)N[C@@H](C)C(=O)N1CCC[C@H]1C(=O)N[C@@H](Cc1ccccc1)B(O)O [MeO-Suc-Ala-Ala-Pro-(L)boro-Phe-OH] | 50%
COC(=O)CCC(=O)N[C@@H](C)C(=O)N[C@@H](C)C(=O)N1CCC[C@H]1C(=O)N[C@H](Cc1ccccc1)B(O)O [MeO-Suc-Ala-Ala-Pro-(D)boro-Phe-OH] | less than 20%

target: T1, cercarial protease; assay: biochemical; settings: not given
Method: (§1) The chloromethyl ketone-derivatized peptide inhibitors were designed by us based on our computer model, and synthesized for us by Enzyme System Products (Dublin, Calif.). Stock solutions of inhibitors (25 mM) were prepared in dimethyl sulfoxide (DMSO). The rate of irreversible inactivation of the protease was followed by withdrawing a 25 μl sample at 4 time intervals after mixing 125 μl of enzyme with 5 μl of inhibitor. Kitz and Wilson's methods of analysis were used for calculation of Ki, k3, and k3 /Ki (Kitz R. & Wilson, I. B. 1962. J. Biol. Chem. 237, 3245) using MeO-Suc-Ala-Ala-Pro-Phe-Sbzl (Sbzl, benzyl thioester) as substrate. Inactivation constants for the boronic acid-derivatized peptides (MeO-Suc-Ala-Ala-Pro (D or L) boro-Phe-OH, a gift from Dr. Charles Kettner, E. I. Dupont de Nemours, Wilmington, Del.) were calculated using MeO-Suc-Ala-Ala-Pro-Phe-Sbzl as the substrate at 125 and 250 μM. Five different concentrations of each inhibitor were used per substrate concentration. The data were plotted according to Dixon and kinactivation values were extrapolated from the graph (Dixon, 1953. Biochem. J. 55, 170-171).

Structure (SMILES) | Ki [µM]
COC(=O)CCC(=O)N[C@@H](C)C(=O)N[C@@H](CCCCN)C(=O)N1CCC[C@H]1C(=O)N[C@@H](Cc1ccccc1)C(=O)CCl [MeO-Suc-Ala-Lys-Pro-Phe-CMK] | 7
COC(=O)CCC(=O)N[C@@H](Cc1ccccc1)C(=O)N[C@@H](C)C(=O)N1CCC[C@H]1C(=O)N[C@@H](Cc1ccccc1)C(=O)CCl [MeO-Suc-Phe-Ala-Pro-Phe-CMK] (MeOSuc-FAPF-CH2Cl) | 1
COC(=O)CCC(=O)N[C@@H](C)C(=O)N[C@@H](C)C(=O)N1CCC[C@H]1C(=O)N[C@@H](Cc1ccccc1)C(=O)CCl [MeO-Suc-Ala-Ala-Pro-Phe-CMK] (MeOSuc-AAPF-CH2Cl) | 13
COC(=O)CCC(=O)N[C@@H](C)C(=O)N[C@@H](C)C(=O)N1CCC[C@H]1C(=O)N[C@@H](Cc1c[nH]c2ccccc12)C(=O)CCl [MeO-Suc-Ala-Ala-Pro-Trp-CMK] (MeOSuc-AAPW-CH2Cl) | 20
COC(=O)CCC(=O)N[C@@H](Cc1c[nH]c2ccccc12)C(=O)N[C@@H](C)C(=O)N1CCC[C@H]1C(=O)N[C@@H](CC(C)C)C(=O)CCl [MeO-Suc-Trp-Ala-Pro-Leu-CMK] (MeOSuc-WAPL-CH2Cl) | 2
COC(=O)CCC(=O)N[C@@H](Cc1c[nH]c2ccccc12)C(=O)N[C@@H](C)C(=O)N1CCC[C@H]1C(=O)N[C@@H](Cc1ccccc1)C(=O)CCl [MeO-Suc-Trp-Ala-Pro-Phe-CMK] (MeOSuc-WAPF-CH2Cl) | 12
COC(=O)CCC(=O)N[C@@H](C)C(=O)N[C@@H](C)C(=O)N1CCC[C@H]1C(=O)N[C@@H](CC(C)C)C(=O)CCl [MeO-Suc-Ala-Ala-Pro-Leu-CMK] (MeOSuc-AAPL-CH2Cl) | 12

target: Cercarial Proteinase (Schistosoma mansoni, UniProt P12546); assay: biochemical; settings: not given
Sequence (P12546 28-264): as above
Method: as §1, with “Kitz and Wilson's methods of analysis were used for calculation of Ki, k3, and k3 /Ki (Kitz R. & Wilson, I.” left out
Therefore a boronic acid derivatized peptide analogous to the chloromethyl ketone derivatized Ala-Ala-Pro-Phe sequence was also tested. […] Stereoisomers of the same peptide were also evaluated.

Structure (SMILES) | IC50 [µM]
COC(=O)CCC(=O)N[C@@H](C)C(=O)N[C@@H](C)C(=O)N1CCC[C@H]1C(=O)N[C@@H](Cc1ccccc1)C(=O)CCl [MeO-Suc-Ala-Ala-Pro-Phe-CMK] (MeOSuc-AAPF-CH2Cl) | 0.088
COC(=O)CCC(=O)N[C@@H](C)C(=O)N[C@@H](C)C(=O)N1CCC[C@H]1C(=O)N[C@@H](CC(C)C)C(=O)CCl [MeO-Suc-Ala-Ala-Pro-Leu-CMK] (MeOSuc-AAPL-CH2Cl) | 0.036
COC(=O)CCC(=O)N[C@@H](C)C(=O)N[C@@H](C)C(=O)N1CCC[C@H]1C(=O)N[C@@H](C)C(=O)CCl [MeO-Suc-Ala-Ala-Pro-Ala-CMK] (MeOSuc-AAPA-CH2Cl) | > 100
